Data on one compound can be found in article PMC7181660, “A novel specific PERK activator reduces toxicity and extends survival in Huntington's disease models” (Scientific Reports, 2020).

Data set [1] has as its system GADD34 mRNA. Kind of data set: GADD34 mRNA by qPCR in STHdh^Q7/7 and STHdh^Q111/111 cells. It counts as cell-based, murine. Conditions: both cell types, qPCR vs GAPDH. Here is the method:
Total cell RNA was extracted with TRIzol reagent (Invitrogen) according to the manufacturer's instructions. Reverse transcription (RT) was performed with QuantaBio qScript cDNA synthesis kit. Real-time qPCR was carried out using a CFX Connect Real-Time PCR Detection System (BioRad) and the amplifications were done using the SYBR Green PCR Master Mix (pcrbio). Reactions were run in triplicates in three independent experiments. Housekeeping gene GAPDH was used as an internal control to normalize the variability of expression levels.

In data set [2] the test system is B6 wild type mice. The data set can be described thus: Toxicity study, 2 weeks continuous subcutaneous Alzet pump delivery. It counts as in vivo. Conditions: 6 mg/kg, 2 weeks continuous subcutaneous delivery. Here is the method: Alzet pumps model 1004 (Alzet, USA), with a rate of 0.11 µl/hour and 28 days effective compound delivery was used. MK-28 compound was dissolved in 1:1 DMSO/PEG400 and prepared to delivery subcutaneously 6 mg/kg MK-28 for toxicity studies (n = 8) or 1 mg/kg for therapeutic evaluation in R6/2 mice (n = 72). For toxicity studies mice receiving six times the therapeutic dose of MK-28 or vehicle were weighed every two days for two consecutive weeks. […]. Alzet pumps were implanted in 4 weeks old mice and MK-28 was administered at 1 mg/kg with continuous dosing for 28 days. […]

The target of data set [3] is panel of 391 kinases (Homo sapiens, UniProt Q9UIK4). Kind of data set: biochemical. It counts as biochemical. Conditions: DAPK2, MK-28 1 µM, ATP 1 µM.
Data set [4] deals with panel of 391 kinases (Homo sapiens, UniProt P42681). The data set can be described thus: biochemical. Conditions: TXK, MK-28 1 µM, ATP 1 µM. Format: biochemical.
For data set [5], the target named is panel of 391 kinases (Homo sapiens, UniProt Q9BXA7). The data set can be described thus: biochemical. It counts as biochemical. Conditions: STK22D/TSSK1, MK-28 1 µM, ATP 1 µM.
Data set [6] concerns PERK-P. The data set can be described thus: PERK phosphorylation shift by immunoblot in MEF cells. Format: cell-based. Conditions: 3 hours, Thap 2 μg/ml.
In data set [7] the target is T1, PERK (EIF2AK3) (Homo sapiens, UniProt Q9NZJ5).
T1 construct: GST; purchased Life technologies, Carlsbad, CA; host or cells: insect cells
T1 sequence (Q9NZJ5 536-1116): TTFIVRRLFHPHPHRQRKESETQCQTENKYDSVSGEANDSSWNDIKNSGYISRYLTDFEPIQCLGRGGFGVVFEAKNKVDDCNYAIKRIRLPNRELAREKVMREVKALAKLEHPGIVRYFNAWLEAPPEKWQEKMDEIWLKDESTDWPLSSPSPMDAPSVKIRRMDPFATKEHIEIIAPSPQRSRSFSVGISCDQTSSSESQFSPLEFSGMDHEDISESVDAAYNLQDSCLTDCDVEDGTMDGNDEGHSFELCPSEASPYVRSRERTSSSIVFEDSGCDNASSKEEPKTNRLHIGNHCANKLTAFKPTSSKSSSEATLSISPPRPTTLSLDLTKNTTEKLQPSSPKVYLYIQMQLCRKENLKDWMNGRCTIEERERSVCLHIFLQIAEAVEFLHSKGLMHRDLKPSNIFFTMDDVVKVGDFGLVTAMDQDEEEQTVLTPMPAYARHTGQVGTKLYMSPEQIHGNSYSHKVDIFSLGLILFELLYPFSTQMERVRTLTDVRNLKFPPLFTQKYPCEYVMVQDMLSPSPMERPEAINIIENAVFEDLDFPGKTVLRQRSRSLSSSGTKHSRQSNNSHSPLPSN
Kind of data set: In vitro HotSpot kinase assay on isolated PERK. Format: biochemical. Conditions: isolated PERK, 1 μM ATP; read-out: EC50 of PERK activation. Here is the method: (§1) In vitro kinase assays with purified components and full kinase panel analysis was done at Reaction Biology Corp. (Malvern, PA, USA) using the HotSpot Kinase Assay. Reactions were performed for 20 min at room temp. using ^33P-ATP (Specific activity 10 μCi/μl) with 1 μM total ATP, 20 μM substrate and kinases in the nanomolar range in 20 mM Hepes (pH 7.5), 10 mM MgCl2, 1 mM EGTA, 0.02% Brij35, 0.02 mg/ml BSA, 0.1 mM Na3VO4, 2 mM DTT, 1% DMSO and other required factors depending on the assayed kinase.

The test system of data set [8] is PERK−/− MEF cells. Kind of data set: Rescue from tunicamycin-induced apoptosis in PERK−/− MEFs. Format: cell-based. Conditions: Tun. On the procedure: (§2) STHdh^Q111/111 cells (used before[13]) or PERK+/+ or PERK−/− MEFs (kindly provided by David Ron, Univ. Cambridge) were incubated with Tun (10 μg/ml) for 48 h, which results in ER stress-induced cell death. Cells under the same conditions were incubated for the same times, together with Tun, with increasing concentrations of the different PERK modulators (0–120 μM) and the percent of apoptotic cells was measured by FACS cell cycle progression using propidium iodide (PI), considering the fraction beneath G0/G1. The relative apoptosis rate was calculated to be able to compare between compounds and experiments, where for each concentration curve the percent of apoptotic cells was considered 100 at concentration 0 of the PERK modulator, with only Tun. The graphs show the average relative apoptosis rate of at least 3 independent experiments for each compound.
(§3) Cells were washed with PBS and fixed with cold methanol. Before FACS analysis cells were washed with PBS, followed by addition of propidium iodide (PI) solution (10 μg/ml) and analysis by flow cytometry. Cells in sub-G0/G1 were counted as apoptotic/ dead.

A short description of data set [9]: Pharmacokinetics and BBB penetration after single IP injection. Format: in vivo. Conditions: mice, single IP 10 mg/kg.
Data set [10] concerns the target EIF2AK2 (PKR) (Homo sapiens, UniProt P19525). Kind of data set: In vitro HotSpot kinase assay on PKR. It counts as biochemical. On the procedure: as §1
The target in data set [11] is EIF2AK1 (HRI) (Homo sapiens, UniProt Q9BQI3). Kind of data set: In vitro HotSpot kinase assay on HRI. Format: biochemical. On the procedure:
as §1

The test system of data set [12] is WT MEF cells. The data set can be described thus: Rescue from tunicamycin-induced apoptosis in WT MEFs. It counts as cell-based. Conditions: Mus musculus, MEF; WT MEFs treated with Tun; read-out: IC50 for inhibition of apoptosis. On the procedure:
as §2, §3

Data set [13] concerns R6/2 HD mouse model. The data set can be described thus: Ultrasonic vocalizations. It counts as in vivo, mice. Conditions: R6/2 TG males. On the procedure: Ultrasonic vocalizations were recorded on males during the first 5 minutes of female exposure, 12 weeks after birth. Vocal emissions were monitored by an UltraSoundGate Condenser Microphone (CM 16; Avisoft Bioacoustics, Berlin, Germany) placed 16 cm above the floor of each male's cage. […]. […] Spectrograms were produced at 586 Hz of frequency resolution and 0.427 ms of time resolution. Figure plotted by MATLAB code.

Where [14] appears, read: read-out: % Enzyme Activity (relative to DMSO controls).

Molecules are shown by their SMILES. Like-named read-outs stand apart in the source and are kept apart here. Some results are limits rather than exact numbers.

On to `CN(/N=C\c1ccc(O)c(O)c1)c1nc(-c2ccccc2)cc(-c2ccccc2)n1` [MK-28], for which the “increase of GADD34 mRNA levels” value in data set [1] was at most 5 fold. Further, in [2], the toxic effects entry was “No toxic effects”. For the same compound, the “% Enzyme Activity (relative to DMSO controls)” value is given as 98.71% in [3], 93.01% in data set [4] and 91.99% in data set [5]. The remaining activity at 1 µM worked out at 104% in data set [3] (setting [14]), 94.1% in data set [4] (setting [14]) and 93.3% in data set [5] (setting [14]). Besides, the “PERK migration shift (PERK-P)” value in [6] was “shift of part of the PERK population to a slower migration”. In data set [7], the EC50 came to 490 nM. For the same compound, the “protection from ER stress-induced cell death” value in data set [8] is “failed to protect”. Besides, in data set [9], the “time of Cmax in plasma after injection” value is 40 min. Also, the “time of Cmax in the brain after injection” value in [9] is recorded as 40 min. Further, the Kp in data set [9] (mouse, brain, read-out: AUC in the brain as % of that in the plasma) stood at 0.22. The Cmax in data set [9] (mouse, brain, read-out: Cmax in the brain) is 57 ng/g; in [9] (mouse, plasma, read-out: Cmax in plasma), 105 ng/mL. Besides, the half-life turned out to be 80 min in data set [9] (mouse, brain, read-out: half-life in the brain) and 30 min in [9] (mouse, plasma, read-out: half-life in plasma). The “effect on EIF2AK2 (PKR) activity” value in data set [10] is on record as “little or no effect”. The “effect on EIF2AK1 (HRI) activity” value in data set [11] is “little or no effect”. The IC50 in data set [12] is 1700 nM. The same compound registered a vocalizations in [13] (12 weeks after birth) of 16 syllables in 5 min. Besides, in data set [13] (p = 0.059), the “increase of vocalizations vs untreated TG” value was “three-fold increase”.
